Data: PubChem BioAssay AID248 (DTP/NCI, 2004)
Values joined by “and” are separate entries in the source; they are usually repeats but may differ in a detail not shown here. Identical values can stand only once. Toxic doses and inconclusive results are not listed. No stated cut-off is given here; in the data, active means T/C of 150% or more; inactive means T/C below 125%.

Test system: L1210 leukemia ip in BDF1 mice, survival T/C
Assay: NCI In Vivo Anticancer Drug Screen. Data for tumor model L1210 Leukemia (intraperitoneal) in B6D2F1 (BDF1) mice
Details: endpoint: mean survival time, higher = longer survival
Outline: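 Ratio derived from survival: compound-dosed mice over vehicle-dosed mice, all bearing a transplantable tumor.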

[1] = dose: 100.0 mg/kg/injection, schedule: Q04DX003 (ip), vehicle: Klucel (hydroxypropylcellulose) (HPC)
[2] = dose: 200.0 mg/kg/injection, schedule: Q04DX003 (ip), vehicle: Klucel (hydroxypropylcellulose) (HPC)
[3] = dose: 400.0 mg/kg/injection, schedule: Q04DX003 (ip), vehicle: Klucel (hydroxypropylcellulose) (HPC)
[4] = dose: 100.0 mg/kg/injection, schedule: Q04DX002 (ip), vehicle: Klucel (hydroxypropylcellulose) (HPC)
[5] = dose: 200.0 mg/kg/injection, schedule: Q04DX002 (ip), vehicle: Klucel (hydroxypropylcellulose) (HPC)
[6] = dose: 400.0 mg/kg/injection, schedule: Q04DX002 (ip), vehicle: Klucel (hydroxypropylcellulose) (HPC)
[7] = dose: 200.0 mg/kg/injection, schedule: Q01DX001 (ip), vehicle: carboxymethylcellulose (CMC)
[8] = dose: 400.0 mg/kg/injection, schedule: Q01DX001 (ip), vehicle: carboxymethylcellulose (CMC)
[9] = dose: 100.0 mg/kg/injection, schedule: Q01DX009 (ip), vehicle: saline with Tween-80
[10] = dose: 200.0 mg/kg/injection, schedule: Q01DX009 (ip), vehicle: saline with Tween-80
[11] = dose: 400.0 mg/kg/injection, schedule: Q01DX009 (ip), vehicle: saline with Tween-80
[12] = dose: 100.0 mg/kg/injection, schedule: Q01DX009 (ip), vehicle: Klucel (hydroxypropylcellulose) (HPC)
[13] = dose: 200.0 mg/kg/injection, schedule: Q01DX009 (ip), vehicle: Klucel (hydroxypropylcellulose) (HPC)
[14] = dose: 400.0 mg/kg/injection, schedule: Q01DX009 (ip), vehicle: Klucel (hydroxypropylcellulose) (HPC)
[15] = dose: 50.0 mg/kg/injection, schedule: Q01DX001 (ip), vehicle: carboxymethylcellulose (CMC)
[16] = dose: 100.0 mg/kg/injection, schedule: Q01DX001 (ip), vehicle: carboxymethylcellulose (CMC)
[17] = dose: 100.0 mg/kg/injection, schedule: Q04DX003 (ip), vehicle: saline
[18] = dose: 200.0 mg/kg/injection, schedule: Q04DX003 (ip), vehicle: saline
[19] = dose: 400.0 mg/kg/injection, schedule: Q04DX003 (ip), vehicle: saline

Measured: T/C

Cn1c2ccccc2c2n[nH]c(=S)nc21
inactive: dose: 100.0 mg/kg/injection, schedule: Q04DX002 (ip), vehicle: saline with Tween-80 104 % of control | dose: 200.0 mg/kg/injection, schedule: Q04DX002 (ip), vehicle: saline with Tween-80 93 % of control | dose: 400.0 mg/kg/injection, schedule: Q04DX002 (ip), vehicle: saline with Tween-80 101 % of control

COc1ccc(OC)c2c1C1C=CC2C1
inactive: dose: 177.0 mg/kg/injection, schedule: Q01DX001 (ip), vehicle: other 98 % of control | dose: 266.0 mg/kg/injection, schedule: Q01DX001 (ip), vehicle: other 94 % of control | dose: 400.0 mg/kg/injection, schedule: Q01DX001 (ip), vehicle: other 89 % of control | dose: 600.0 mg/kg/injection, schedule: Q01DX001 (ip), vehicle: other 96 % of control

CN(C)C(C)(C)CC(C)(C)C
inactive: dose: 25.0 mg/kg/injection, schedule: Q04DX003 (ip), vehicle: saline with Tween-80 103 % of control | dose: 50.0 mg/kg/injection, schedule: Q04DX003 (ip), vehicle: saline with Tween-80 106 % of control | dose: 100.0 mg/kg/injection, schedule: Q04DX003 (ip), vehicle: saline with Tween-80 103 % of control

CCCCP(=S)(CCCC)N(CC)CC
inactive: [1] 101 % of control | [2] 104 % of control | [3] 93 % of control

O=NN(CC(F)(F)F)C(=O)NCC(F)(F)F
inactive: dose: 8.0 mg/kg/injection, schedule: Q01DX001 (ip), vehicle: carboxymethylcellulose (CMC) 113 % of control | dose: 16.0 mg/kg/injection, schedule: Q01DX001 (ip), vehicle: carboxymethylcellulose (CMC) 113 % of control | dose: 31.0 mg/kg/injection, schedule: Q01DX001 (ip), vehicle: carboxymethylcellulose (CMC) 113 % of control | dose: 62.0 mg/kg/injection, schedule: Q01DX001 (ip), vehicle: carboxymethylcellulose (CMC) 113 % of control | dose: 125.0 mg/kg/injection, schedule: Q01DX001 (ip), vehicle: carboxymethylcellulose (CMC) 113 % of control | dose: 187.0 mg/kg/injection, schedule: Q01DX001 (ip), vehicle: carboxymethylcellulose (CMC) 112 % of control | dose: 250.0 mg/kg/injection, schedule: Q01DX001 (ip), vehicle: carboxymethylcellulose (CMC) 107 % of control | dose: 375.0 mg/kg/injection, schedule: Q01DX001 (ip), vehicle: carboxymethylcellulose (CMC) 113 % of control | dose: 500.0 mg/kg/injection, schedule: Q01DX001 (ip), vehicle: carboxymethylcellulose (CMC) 118 % of control

S=C(Sc1nc2ccccc2s1)Sc1nc2ccccc2s1
inactive: [4] 105 % of control | [5] 94 % of control | [6] 101 % of control

CC(=O)Nc1ncnc(NC(C)=O)c1N=O
inactive: dose: 100.0 mg/kg/injection, schedule: Q01DX001 (ip), vehicle: saline 93 % of control | dose: 200.0 mg/kg/injection, schedule: Q01DX001 (ip), vehicle: saline 102 % of control

CC1CC=CC(N2C(=O)c3ccccc3C2=O)C1 (stereo unspecified)
inactive: [7] 91 % of control | [8] 93 % of control

N#C/C=C/c1cccc([N+](=O)[O-])c1
inactive: [9] 102 % of control | [10] 93 % of control | [11] 98 % of control

COc1cccc2c1CCC/C2=N\N(C)C
inactive: dose: 100.0 mg/kg/injection, schedule: Q04DX003 (sc), vehicle: olive oil, sesame oil, peanut oil 107 % of control | dose: 200.0 mg/kg/injection, schedule: Q04DX003 (sc), vehicle: olive oil, sesame oil, peanut oil 105 % of control | dose: 400.0 mg/kg/injection, schedule: Q04DX003 (sc), vehicle: olive oil, sesame oil, peanut oil 109 % of control

c1ccc(N2CCSCC2)cc1
inactive: dose: 12.0 mg/kg/injection, schedule: Q01DX Z (ip), vehicle: methylcellulose (MC) 108 % of control | dose: 18.0 mg/kg/injection, schedule: Q01DX Z (ip), vehicle: methylcellulose (MC) 110 % of control | dose: 27.0 mg/kg/injection, schedule: Q01DX Z (ip), vehicle: methylcellulose (MC) 103 % of control | dose: 40.5 mg/kg/injection, schedule: Q01DX Z (ip), vehicle: methylcellulose (MC) 92 % of control

CCC(Cl)COP(=O)(OCC(Cl)CC)OC(C(C)C)P(=O)(OCC(Cl)CC)OCC(Cl)CC (stereo unspecified)
inactive: [1] 95 % of control | [2] 93 % of control | [3] 90 % of control

CN1C(=O)C2C3C=CC(C3)C2C1=O (stereo unspecified)
inactive: dose: 100.0 mg/kg/injection, schedule: Q01DX001 (ip), vehicle: Klucel (hydroxypropylcellulose) (HPC) 97 % of control | [12] 101 % of control | dose: 200.0 mg/kg/injection, schedule: Q01DX001 (ip), vehicle: Klucel (hydroxypropylcellulose) (HPC) 101 % of control | [13] 100 % of control | dose: 400.0 mg/kg/injection, schedule: Q01DX001 (ip), vehicle: Klucel (hydroxypropylcellulose) (HPC) 106 % of control | [14] 96 % of control

Cc1ccc(O)c(C(=O)c2ccccc2)c1
inactive: [15] 96 % of control | [16] 99 % of control | [7] 89 % of control | [8] 94 % of control

Cc1c(C#N)c2ccccc2c2ccccc12
inactive: [17] 103 % of control | [18] 103 % of control | [19] 95 % of control

CCOC(=O)CNC1=NCCO1
inactive: [9] 91 % of control | [10] 96 % of control | [11] 93 % of control

CCCCNc1c(C2=NCCN2)cnc2c1cnn2CC
inactive: dose: 25.0 mg/kg/injection, schedule: Q04DX003 (ip), vehicle: Klucel (hydroxypropylcellulose) (HPC) 92 % of control | dose: 50.0 mg/kg/injection, schedule: Q04DX003 (ip), vehicle: Klucel (hydroxypropylcellulose) (HPC) 99 % of control | [1] 90 % of control and 92 % of control

COC(=O)c1ccc(O)c([N+](=O)[O-])c1
inactive: dose: 50.0 mg/kg/injection, schedule: Q01DX009 (ip), vehicle: saline with Tween-80 103 % of control | [9] 94 % of control | [10] 89 % of control

Cc1ccc2ccccc2c1CC(=O)O
inactive: [12] 101 % of control | [1] 112 % of control | [13] 95 % of control | [2] 96 % of control | [14] 117 % of control | [3] 96 % of control

CC(C)OC(=O)c1ccc([N+](=O)[O-])cc1
inactive: [4] 95 % of control | [5] 110 % of control | [6] 95 % of control

CCN(CC)Cc1cc(NC(C)=O)ccc1O
inactive: [17] 102 % of control | [18] 97 % of control | [19] 113 % of control

Cc1cccc(NC(=O)N2CCN(c3ccccc3)CC2)c1
inactive: [15] 106 % of control | [16] 101 % of control | [7] 101 % of control | [8] 104 % of control

CN1C(=O)NC2ON=C(c3ccccc3)C2C1=O (stereo unspecified)
inactive: [12] 103 % of control | [1] 100 % of control | [13] 104 % of control | [2] 103 % of control | [14] 104 % of control | [3] 100 % of control
